This is an account of results in patent US20240279202A1 (NURIX THERAPEUTICS, INC., priority 2021, published 2024).

The nature of data set [1]: Mouse PK analysis (blood/plasma concentration after oral administration). In kind it is in vivo. The note with it: mice; for concentration at 6 h: read-out: Cal. Conc. Total (μM) 6 h. On the procedure: Compounds 1, 3, 7, and 42 were formulated and administered at 90 mg/kg to mice by oral gavage (PO). Blood was collected at defined time points (after 1, 2, and 6 hours) after compounds administration to determine PK parameters. Concentration increased through 6 hours. Six hours later mice were sacrificed and splenocytes were isolated and used to prepare protein lysates. Total protein levels were determined in the lysates using the BCA assay according to standard methods. Equal amounts of protein were then analyzed by Western blot to determine the level of ITK expression in each sample. ITK band intensities were measured using Alpha View software and the percent of ITK remaining in each test animal was determined relative to the mean of ITK levels in vehicle control samples.
Compounds 16, 17, and 18 were administered to mice orally. After 6 hours or 24 hours, splenocytes cells were harvested. ITK was evaluated by Western blotting. Plasma concentrations were determined by LC/MS/MS. Plasma samples were protein precipitated by addition of 100 μl of acetonitrile containing 50 ng/ml of internal standard. The resulting mixture was vortexed and centrifuged at 4000 RPM for 5 minutes. An aliquot of the resultant supernatant (75 μl) was added to 75 μl of 0.1% formic acid in water to constitute the final sample for injection. Samples were injected on a Shimadzu Exion LC Binary Gradient AD Pump HLPC system connected to a Sciex QTRAP 6500+mass spectrometer. Five μl of sample was injected onto a Waters Acquity UPLC BEH C18 column 130A (2.1×30 mm, […]) at 40° C. utilizing a flow rate of 700 μl/minute. Mobile Phase A was 0.1% formic acid in water and mobile phase B was 0.1% formic acid in acetonitrile. A linear gradient of 15-95% B over 1.0 minute was used. The mass spectrometer was operated in positive ion electrospray mode with multiple reaction monitoring for maximum sensitivity. Sciex Analyst software (version 1.6.3) was used for LC/MS/MS instrument control and acquisition. Compound concentration was determined against a standard curve of internal standard versus compound peak area ratio. Noncompartmental PK parameters were determined using […] software (version 8.2.0.4383) from Certara. Plasma concentrations from the LC/MS/MS analyses, dose, route of administration, and desired units were utilized for PK parameter calculations. […] FIG. 4C provides the concentration over time of compound 17 following in vivo oral administration in the 6 hour and 24 hour assays.
Cmax, Tmax and AUClast were all calculated using a WinNonLin Phoenix 64 v 8.2.0.4383. Using non-compartmental analysis, Tmax, Cmax and AUClast were determined as follows: • Tmax—Time of maximum observed concentration. • Cmax—Maximum observed concentration, occurring at time Tmax, as defined above. • AUClast—Area under the curve from the time of dosing to the time of the last measurable (positive) concentration (Tlast).

Data set [2] has as its target T1, ITK (Homo sapiens, UniProt Q08881).
T1 sequence (Q08881 1-620): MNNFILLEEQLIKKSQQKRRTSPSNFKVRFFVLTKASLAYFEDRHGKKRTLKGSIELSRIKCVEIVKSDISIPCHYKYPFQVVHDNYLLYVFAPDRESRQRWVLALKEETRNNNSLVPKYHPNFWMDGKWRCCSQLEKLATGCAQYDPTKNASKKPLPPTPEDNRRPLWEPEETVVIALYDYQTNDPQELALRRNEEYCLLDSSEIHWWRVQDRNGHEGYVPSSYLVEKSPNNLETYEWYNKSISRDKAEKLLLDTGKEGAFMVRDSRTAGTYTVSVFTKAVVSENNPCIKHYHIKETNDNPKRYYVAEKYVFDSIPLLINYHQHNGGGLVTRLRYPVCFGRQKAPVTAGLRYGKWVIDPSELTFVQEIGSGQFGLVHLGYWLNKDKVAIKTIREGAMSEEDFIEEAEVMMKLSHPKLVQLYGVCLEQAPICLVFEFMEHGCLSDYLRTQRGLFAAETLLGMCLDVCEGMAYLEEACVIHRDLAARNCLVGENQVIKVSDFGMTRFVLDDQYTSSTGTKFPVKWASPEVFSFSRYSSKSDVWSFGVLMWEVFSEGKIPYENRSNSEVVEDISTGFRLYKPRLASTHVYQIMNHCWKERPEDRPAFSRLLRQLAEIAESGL
The data set can be described thus: ITK degradation MSD (Meso Scale Discovery) assay. The class given is cell-based. Details: either human Jurkat (Clone E6-1 ATCC TIB-152) or Motl4 (ATCC CRL-1552), were plated; endogenous in cells; host or cells: Jurkat clone E6-1 (ATCC TIB-152) or Molt4 (ATCC CRL-1552). As to conditions: Jurkat or Molt4 cells, 4 or 6 hrs. On the procedure:
ITK Degradation MSD (Meso Scale Discovery) Assay Compound dilution series (7-point, 5 fold dilutions in DMSO, rows B-H with replicate in Column 1⁄2, 3⁄4, 5⁄6, 7,8, at 2000× the final required concentrations were prepared in 96 well plates (Falcon, cat. no. 353077). Row A, Column 1-8 were control DMSO. The 2000× solutions ranged from 2 mM to 128 nM (final assay concentration range 1 μM to […]). The 2000× solutions were added to cells in […], for a final DMSO concentration of 0.5% and final assay compound concentration of 1×. For the cells, either human Jurkat (Clone E6-1 ATCC TIB-152) or Motl4 (ATCC CRL-1552), were plated at 1×10^6 cells/mL, 100 μL/well ([…]) in complete RPMI (10% FBS, 1% L-glutamine). Cells were incubated for 4 or 6 hrs at 32° C./6% CO2. Following incubation, plates were centrifuged at 1200 rpm for 5 min. supernatant was removed and 50 μL of cell lysis buffer ((MSD Tris lysis buffer (R60TX), Complete Mini EDTA-free protease inhibitor (Sigma 11836170001), Protease Inhibitor Cocktail (Sigma, P2714), Phosphatase Inhibitor Cocktail 2 and 3 (Sigma, P5726 and P0044), and Benzonase (Sigma, E1014)) was added to each well. Plates were sealed and shook at 4° C. for 30 min. Plates were centrifuged and 45 μL was removed for plate assays. Assay plate preparation: Meso Scale Discovery (MSD) multi-array sm spot 96 well plates (Goat anti-Rabbit L^45-RA), were blocked with 3% BSA blocking buffer (3% Bovine Serum Albumin (Sigma A3059)+TBS 0.2% Tween-20) for 1 hr with gentle rocking at room temperature. Plates were then washed with 200 μL of 1× TBST (TBS 0.2% Tween-20) 3 times. After last wash, liquid was removed and 50 μL per well of capture antibody (abcam ITK Y402-ab32507) was added to plates at a 1:1000 dilution in blocking buffer (above). Plates were sealed and rocked at room temperature for 2 hrs. Plates were then washed 3 times with 200 μL of 1× TBST. After last wash, liquid was removed and 45 μL of cell lysate (from above) was added to each plate. Plates were sealed and rocked overnight at 4° C. Next day, cell lysates were removed, and assay plates were washed 3 times with 200 μL of 1× TBST. After last wash, liquid was removed and detection antibody (CST ITK (2F12) #2380) was added at 50 μL per well at a dilution of 1:1000 in blocking buffer. Plates were sealed and rocked at room temperature for 2 hrs. Plates were washed 3 times with 200 uL of 1× TBST. After last wash, liquid was removed, MSD Mouse anti-Rabbit sulfo tag (R32AC-1) was diluted to 1:1000 in blocking buffer. 50 μL was added to each well on the plate. Plates were sealed and incubated at room temperature for 1 hr. Plates were washed 3 times with 200 μL of 1× TBST. After last wash, liquid was removed and 150 μL of 1× MSD Read Buffer T ([…]) was then added to each well for ECL read out. For reading ECL signal, plate is read on a Meso Scale Discovery (MSD) MESO Sector S 600 plate reader. Percent ITK in then calculated as described below. Percent ITK remaining per sample was calculated as follows: [formula] Using Graphpad Prism, % ITK remaining values were plotted as a function of compound concentration. To determine DC50 and Dmax values, resulting curves were fit to the Prism curve-fitting equation “log(inhibitor) vs response-Variable slope (four parameters)” (reported best fit value IC50 used as DC50).

Structures are written as SMILES.

Usually DC50 stands for the midpoint of the concentration-degradation curve. High values mean degradation only at high concentration, low ones degradation at low concentration. As usually defined, the Dmax is the largest share of the target that was removed. A low value points to a partial loss of target.

Consider `C[C@@]12Cc3[nH]nc(C(=O)Nc4cnn([C@H](c5ccccc5)C5CN(C(=O)C6CCN(c7ccc8c(c7)C(=O)N(C7CCC(=O)NC7=O)C8=O)CC6)C5)c4)c3C[C@@H]1C2(F)F` (stereo partly drawn) [Compound 38, (4aS,5aR)-N-(1-((1S)-(1-(1-(2-(2,6-dioxopiperidin-3-yl)-1,3-dioxoisoindolin-5-yl)piperidine-4-carbonyl)azetidin-3-yl)(phenyl)methyl)-1H-pyrazol-4-yl)-5,5-difluoro-5a-methyl-1,4,4a,5,5a,6-hexahydrocyclopropafindazole-3-carboxamide], for which, in data set [1] (mouse, plasma, oral, 90 mg/kg, 2 h, read-out: Cal. Conc. Total (μM) 2 h), the concentration at 2 h came to 0.0046 µM. For the same molecule, the concentration at 6 h in data set [1] (mouse, plasma, oral, 90 mg/kg) amounted to 0.0024 µM. Also, in data set [2], it took 0.2 nM to reach half-maximal degradation (DC50) and the Dmax turned out to be 84%.

Take `C[C@@]12Cc3[nH]nc(C(=O)Nc4cnn([C@H](c5ccccc5)C5CN(C(=O)C6CCN(c7ccc(C(=O)NC8CCC(=O)NC8=O)nc7)CC6)C5)c4)c3C[C@@H]1C2(F)F` (stereo partly drawn) [Compound 40, (4aS,5aR)-N-(1-((1S)-(1-(1-(6-((2,6-dioxopiperidin-3-yl)carbamoyl)pyridin-3-yl)piperidine-4-carbonyl)azetidin-3-yl)(phenyl)methyl)-1H-pyrazol-4-yl)-5,5-difluoro-5a-methyl-1,4,4a,5,5a,6-hexahydrocyclopropa[f]indazole-3-carboxamide]: the “Cal. Conc. Total (μM) 2 h” value in data set [1] (2 h) is listed as “BQL”. Besides, the concentration at 6 h in data set [1] (mouse, plasma, oral, 90 mg/kg) turned out to be 0.009 µM. Besides, the Dmax in data set [2] came to 46%.
